Data taken from patent US20220251074A1, “HERBICIDAL AMIDES” (BASF SE, priority 2019, published 2022).

What was measured:
SETVI = experiment: greenhouse post-emergence herbicidal test; assay type: in vivo, Setaria viridis; settings: application rate 500 g/ha, scale from 0 to 100; for herbicidal activity against SETVI: post-emergence method; for damages, unwanted plants SETVI: post-emergence application, greenhouse
Text: (§1) The culture containers used were plastic flowerpots containing loamy sand with approximately 3.0% of humus as the substrate. The seeds of the test plants were sown separately for each species.
(§2) For the post-emergence treatment, the test plants were first grown to a height of 3 to 15 cm, depending on the plant habit, and only then treated with the active ingredients which had been suspended or emulsified in water. For this purpose, the test plants were either sown directly and grown in the same containers, or they were first grown separately as seedlings and transplanted into the test containers a few days prior to treatment.
(§3) Depending on the species, the plants were kept at 10-25° C. or 20-35° C., respectively. The test period extended over 2 to 4 weeks. During this time, the plants were tended, and their response to the individual treatments was evaluated.
(§4) Evaluation was carried out using a scale from 0 to 100. 100 means no emergence of the plants, or complete destruction of at least the aerial moieties, and 0 means no damage, or normal course of growth. A good herbicidal activity is given at values of at least 80 and a very good herbicidal activity is given at values of at least 90.
(§5) The plants used in the greenhouse experiments were of the following species: […]

ABUTH = experiment: greenhouse post-emergence herbicidal test; assay type: in vivo, Abutilon theophrasti; settings: post-emergence method, application rate 500 g/ha, scale from 0 to 100
Text: as §1, §2, §3, §4, §5

SEBEX = experiment: greenhouse post-emergence herbicidal test; assay type: in vivo, Sesbania exaltata; settings: post-emergence application, application rate 8 g/ha, scale from 0 to 100
Text: as §1, §2, §3, §4, §5

AVEFA = experiment: greenhouse post-emergence herbicidal test; assay type: in vivo, Avena fatua; settings: application rate 500 g/ha, scale from 0 to 100; for damages, unwanted plants AVEFA: post-emergence application, greenhouse
Text: as §1, §2, §3, §4, §5

CHEAL = experiment: greenhouse post-emergence herbicidal test; assay type: in vivo, Chenopodium album; settings: post-emergence application, application rate 8 g/ha, scale from 0 to 100
Text: as §1, §2, §3, §4, §5

ALOMY = experiment: greenhouse post-emergence herbicidal test; assay type: in vivo, Alopercurus myosuroides; settings: post-emergence application, application rate 500 g/ha, scale from 0 to 100
Text: as §1, §2, §3, §4, §5

RAPRA = experiment: greenhouse post-emergence herbicidal test; assay type: in vivo, Raphanus raphanistrum; settings: post-emergence application, application rate 8 g/ha, scale from 0 to 100
Text: as §1, §2, §3, §4, §5

AMARE [1] = experiment: greenhouse pre-emergence herbicidal test; assay type: in vivo, Amaranthus retroflexus; settings: pre-emergence method, application rate 500 g/ha, scale from 0 to 100
Text: as §1
(§6) For the pre-emergence treatment, the active ingredients, which had been suspended or emulsified in water, were applied directly after sowing by means of finely distributing nozzles. The containers were irrigated gently to promote germination and growth and subsequently covered with transparent plastic hoods until the plants had rooted. This cover caused uniform germination of the test plants, unless this had been impaired by the active ingredients.
as §3, §4, §5

AMARE [2] = experiment: greenhouse post-emergence herbicidal test; assay type: in vivo, Amaranthus retroflexus; settings: post-emergence method, application rate 500 g/ha, scale from 0 to 100
Text: as §1, §2, §3, §4, §5

ECHCG = experiment: greenhouse post-emergence herbicidal test; assay type: in vivo, Echinocloa crus-galli; settings: post-emergence method, application rate 500 g/ha, scale from 0 to 100
Text: as §1, §2, §3, §4, §5

SETFA = experiment: greenhouse pre-emergence herbicidal test; assay type: in vivo, Setaria faberi; settings: pre-emergence method, application rate 500 g/ha, scale from 0 to 100
Text: as §1, §6, §3, §4, §5

For `CC(=CC(=O)N1CCSC1=O)CC1OCC(CC2OC2C(C)C(C)O)C2OC(C)(C)OC12` (stereo not shown) [compound 39], the “herbicidal activity against SETVI” value (SETVI) was “very good herbicidal activity (a very good herbicidal activity is given at values of at least 90)” and the “herbicidal activity against ABUTH” value (ABUTH) was “very good herbicidal activity (a very good herbicidal activity is given at values of at least 90)”.
With `C#CCNC(=O)/C=C(\C)C[C@@H]1OC[C@H](C[C@@H]2O[C@H]2[C@@H](C)[C@H](C)O)[C@@H](O)[C@H]1O` [compound 26, (E)-4-[(2S,3R,4R,5S)-3,4-dihydroxy-5-[[(2S,3S)-3-[(1S,2S)-2-hydroxy-1-methyl-propyl]oxiran-2-yl]methyl]tetrahydropyran-2-yl]-3-methyl-N-prop-2-ynyl-but-2-enamide] the “damages, unwanted plants SEBEX” value (SEBEX) was 100, the “damages, unwanted plants AVEFA” value (AVEFA) was 98 and the “damages, unwanted plants CHEAL” value (CHEAL) was 100. The “damages, unwanted plants SETVI” value (SETVI) was 100, the “damages, unwanted plants ALOMY” value (ALOMY) was 95 and the “damages, unwanted plants RAPRA” value (RAPRA) was 100.
`C/C(=C\C(=O)NCCO)C[C@@H]1OC[C@H](C[C@@H]2O[C@H]2[C@@H](C)[C@H](C)O)[C@@H](O)[C@H]1O` [cmpd 77 (WO 93/19599), reference compound] was tested, and the “damages, unwanted plants SEBEX” value (SEBEX) was 65, the “damages, unwanted plants AVEFA” value (AVEFA) was 50 and the “damages, unwanted plants CHEAL” value (CHEAL) was 75. The “damages, unwanted plants SETVI” value (SETVI) was 85, the “damages, unwanted plants ALOMY” value (ALOMY) was 70 and the “damages, unwanted plants RAPRA” value (RAPRA) was 85.
In the case of `C/C(=C\C(=O)NCCF)C[C@@H]1OC[C@H](C[C@@H]2O[C@H]2[C@@H](C)[C@H](C)O)[C@@H](O)[C@H]1O` [compound 1], the “damages, unwanted plants CHEAL” value (CHEAL) is reported as 100, the “damages, unwanted plants SETVI” value (SETVI) is reported as 100 and the “damages, unwanted plants ALOMY” value (ALOMY) is reported as 100. The “damages, unwanted plants RAPRA” value (RAPRA) was 100.
In the case of `C#CCNC(=O)C=C(C)CC1OCC(CC2OC2C(C)C(C)O)C2OC(OCC)OC12` (stereo not shown) [compound 33], the “herbicidal activity against AMARE” value (AMARE [1]) is reported as “good herbicidal activity (A good herbicidal activity is given at values of at least 80)”.
In the case of `CC(=CC(=O)NCC(F)(F)C(F)(F)C(F)(F)F)CC1OCC(CC2OC2C(C)C(C)O)C2OC(C)(C)OC12` (stereo not shown) [compound 19], the “herbicidal activity against AMARE” value (AMARE [2]) is reported as “very good herbicidal activity (a very good herbicidal activity is given at values of at least 90)”.
`C/C(=C\C(=O)NCC(F)(F)C(F)(F)C(F)(F)F)C[C@@H]1OC[C@H](C[C@@H]2O[C@H]2[C@@H](C)[C@H](C)O)[C@@H](O)[C@H]1O` [compound 9] was tested, and the “herbicidal activity against SETVI” value (SETVI) was “very good herbicidal activity (a very good herbicidal activity is given at values of at least 90)”, the “herbicidal activity against AMARE” value (AMARE [2]) was “very good herbicidal activity (a very good herbicidal activity is given at values of at least 90)” and the “herbicidal activity against ECHCG” value (ECHCG) was “good herbicidal activity (A good herbicidal activity is given at values of at least 80)”.
`C/C(=C\C(=O)N1CCSC1=O)C[C@@H]1OC[C@H](C[C@@H]2O[C@H]2[C@@H](C)[C@H](C)O)[C@@H](O)[C@H]1O` [compound 37] was tested, and the “herbicidal activity against SETVI” value (SETVI) was “very good herbicidal activity (a very good herbicidal activity is given at values of at least 90)”, the “herbicidal activity against AMARE” value (AMARE [2]) was “good herbicidal activity (A good herbicidal activity is given at values of at least 80)” and the “herbicidal activity against ABUTH” value (ABUTH) was “very good herbicidal activity (a very good herbicidal activity is given at values of at least 90)”. The “herbicidal activity against ECHCG” value (ECHCG) was “good herbicidal activity (A good herbicidal activity is given at values of at least 80)”.
With `C/C(=C\C(=O)NCC#CC(C)(C)C)C[C@@H]1OC[C@H](C[C@@H]2O[C@H]2[C@@H](C)[C@H](C)O)[C@@H](O)[C@H]1O` [compound 29] the “herbicidal activity against SETFA” value (SETFA) was “good herbicidal activity (A good herbicidal activity is given at values of at least 80)”.
`CCOC1OC2C(CC3OC3C(C)C(C)O)COC(CC(C)=CC(=O)NCC(F)(F)F)C2O1` (mixture of isomers) [compound 20] was tested, and the “herbicidal activity against AMARE” value (AMARE [2]) was “very good herbicidal activity (a very good herbicidal activity is given at values of at least 90)”, the “herbicidal activity against ABUTH” value (ABUTH) was “very good herbicidal activity (a very good herbicidal activity is given at values of at least 90)” and the “herbicidal activity against ECHCG” value (ECHCG) was “very good herbicidal activity (a very good herbicidal activity is given at values of at least 90)”.
In the case of `CC(=O)[C@H](C)[C@@H]1O[C@H]1C[C@H]1CO[C@@H](C/C(C)=C/C(=O)NCC(F)(F)F)[C@H](O)[C@@H]1O` [compound 43], the “herbicidal activity against AVEFA” value (AVEFA; post-emergence method) is reported as “very good herbicidal activity (a very good herbicidal activity is given at values of at least 90)”, the “herbicidal activity against SETVI” value (SETVI) is reported as “very good herbicidal activity (a very good herbicidal activity is given at values of at least 90)” and the “herbicidal activity against ABUTH” value (ABUTH) is reported as “very good herbicidal activity (a very good herbicidal activity is given at values of at least 90)”.
